Data set [1] concerns Pseudomonas aeruginosa. The experiment in a line: Bacteriostatic activity in vitro (dilution method). It is filed as cell-based. The note with it: nutrient broth.
Data set [2] has as its system mice. The experiment in a line: Acute toxicity in mice. It is filed as in vivo. The note with it: orally, single dose. On the procedure:
Acute toxicity: in mice, the 50% lethal dose (LD50) is 90 mg/kg given orally in a single dose.

Data set [3] has as its system Neisseria catarrhalis (A 152, Institut Pasteur). The experiment in a line: Bacteriostatic activity in vitro (dilution method). The note with it: nutrient broth. It counts as cell-based.
The test system of data set [4] is Staphylococcus aureus,strain 209 P- ATCC 6538 P. The data set is described as follows: Bacteriostatic activity in vitro (dilution method). Particulars: nutrient broth. It is filed as cell-based.
Data set [5] concerns Mycobacterium species - ATCC 607. The data set is described as follows: Bacteriostatic activity in vitro (dilution method). The note with it: nutrient broth. It is filed as cell-based.
Data set [6] deals with Salmonella schottmuelleri (paratyphi B), Fougenc strain (Institut Pasteur). The experiment in a line: Bacteriostatic activity in vitro (dilution method). It is filed as cell-based. The note with it: nutrient broth.
Data set [7] has as its system Staphylococcus aureus,Smith strain. The experiment in a line: Bacteriostatic activity in vitro (dilution method). It is filed as cell-based. The note with it: nutrient broth.
Data set [8] concerns Streptococcus faecalis - ATCC 8043. The experiment in a line: Bacteriostatic activity in vitro (dilution method). It is filed as cell-based. Particulars: nutrient broth.
The subject of data set [9] is Bacillus subtilis - ATCC 6633. The experiment in a line: Bacteriostatic activity in vitro (dilution method). It counts as cell-based. Particulars: nutrient broth.
In data set [10] the test system is Streptococcus pyogenes haemolyticus, Dig 7 strain (Institut Pasteur). The experiment in a line: Bacteriostatic activity in vitro (dilution method). It counts as cell-based. The note with it: nutrient broth.
Data set [11] concerns Bacillus cereus - ATCC 6630. The experiment in a line: Bacteriostatic activity in vitro (dilution method). It is filed as cell-based. Particulars: nutrient broth.
The subject of data set [12] is Diplococcus pneumoniae, Til strain (Institut Pasteur). The data set is described as follows: Bacteriostatic activity in vitro (dilution method). It counts as cell-based. The note with it: nutrient broth.
For data set [13], the system named is Shigella dysenteriae, Shiga L (Institut Pasteur). It is filed as cell-based. The note with it: nutrient broth.
The subject of data set [14] is Proteus vulgaris. The data set is described as follows: Bacteriostatic activity in vitro (dilution method). It counts as cell-based. The note with it: nutrient broth.
Data set [15] concerns Sarcina lutea - ATCC 9341. The data set is described as follows: Bacteriostatic activity in vitro (dilution method). It counts as cell-based. The note with it: nutrient broth.
The test system of data set [16] is chickens. The experiment in a line: Toxicity of medicated feed in chickens (non-toxic concentrations). It counts as in vivo. The note with it: between 0.005% and 0.04% by weight in feed. The procedure: Anti-coccidial activity: the anti-coccidial activity was determined in chickens infested in particular with Eimeria tenella and Eimeria acervulina.
The anti-coccidial activity of 37,454 RP (sodium salt), incorporated into chicken feed, manifests itself at non-toxic concentrations of between 0.005% and 0.04% by weight of the sodium salt in the feed.

The structures appear in SMILES notation.

For the compound `CO[C@H]1CC[C@H](O[C@H]2[C@H](C)[C@@H]([C@H]3CC[C@H]([C@@H]4CC[C@H]([C@@]5(C)OC6(O[C@H](C[C@@H]7O[C@](O)([C@@H](O)C(=O)[O-])[C@@H](C)[C@H](OC)[C@@]7(C)OC)C[C@@H](OC)[C@H]6C)[C@H](C)[C@H]5OC)O4)O3)O[C@](C)(O)[C@@H]2C)O[C@@H]1C.[Na+]` (stereo partly shown) [37,454 RP (sodium salt)], the Minimum bacteriostatic concentration in [1] is given as over 15 μg/cc; in data set [3], over 20 μg/cc; in [4] it was 0.6 μg/cc; in [5] it was 10 μg/cc; in data set [6], over 50 μg/cc; in data set [7], 0.8 μg/cc. The Minimum bacteriostatic concentration is given as 0.3 μg/cc in data set [8]; 0.8 μg/cc in data set [9]; 0.6 μg/cc in data set [10]; 0.3 μg/cc in data set [11]; 0.1 μg/cc in data set [12]; over 50 μg/cc in [13]. Further, the Minimum bacteriostatic concentration in data set [14] was over 50 μg/cc; in [15] it was 0.9 μg/cc. In addition, the “50% lethal dose (LD50)” value in data set [2] was determined as 90 mg/kg. Further, the “Toxicity at active feed concentrations” value in data set [16] is “non-toxic”.
